# Data published in patent publication US7018642B2 (The Procter & Gamble Company, priority 2001, dated 2006).
# How the values were obtained:
# Type in all cases: cell-based
# [1] = system: P. fluorescens strain ATCC 13525; assay: Biofilm prevention screen (96-well microplate, crystal violet); details: Pseudomonas fluorescens, positive = prevention, negative = enhancement of biofilm formation, quadruplicate, read-out: average percentage reduction of biofilm formed relative to DMSO controls; for inhibition at 32 µM: ATCC13525, 32 μM; for inhibition at 160 µM: ATCC13525, 160 μM; for inhibition at 390 µM: ATCC13525, 390 μM
# Method: (§1) Overnight cultures of 3 mL are made of P. aeruginosa strain PAO1 (grown in R2A medium (Handbook of Microbiological Media; CRC Press, 1997, second edition, R. M. Atlas, ed.), modified to omit Mg^2+ but to include 0.3–0.5% fructose (pH 7.0) and 3 μM ferrous ammonium sulfate), P. fluorescens strain ATCC 13525 (grown in R2A modified to omit Mg^2+ but to include 0.3–0.5% sodium pyruvate (pH 7.0)), S. epidermidis strain ATCC 35984 (grown in a ¼ dilution of TSB (Handbook of Microbiological Media; CRC Press, 1997, second edition, R. M. Atlas, ed.) supplemented with 1% fructose (pH 7.0) and 3 μM ferrous ammonium sulfate). To each type of growth medium, HEPES (pH 7.3) is optionally added to a final concentration of 10 mM.
# (§2) To PS, PVC, or PP (preferably PP or PVC) round-bottom, 96-well microplates containing 100 μl per well of the respective growth medium as described above, compounds to be tested (dissolved in DMSO) are added and mixed, to give a final concentration of 250–500 μM. These microplates then also are used to make successive dilutions of the compounds in the same respective growth medium to yield microplates containing final concentrations of, for example, 160 μM and 32 μM of the same set of compounds. Control wells are included in the dilution series that contain only DMSO. From the 3 ml overnight cultures, each of the three dilution plate sets is inoculated with 5 μl per well of a 1:1 dilution in the same liquid growth media of the appropriate culture. The covered plate is then incubated with shaking, at 30° C. (for P. aeruginosa or P. fluorescens) or 37° C. (for S. epidermidis), at 200 rpm, for 16–26 hours, in a humidity controlled environment.
# (§3) Cells present in biofilm attached to the microplate surface are stained with CV either after removal of the liquid from each well, followed by rinsing three times (aspiration and addition) with 150 μl per well phosphate buffered saline solution (PBS) and final addition of 100 μl per well of PBS, or by direct addition of stain to bacterial cultures without rinsing. To 100 μl per well of PBS or of bacterial culture, 25 μl/well of 1% CV solution (in ˜10% ethanol) is added. After incubation at room temperature for 45 minutes, the dye solution is removed from the plates. Residual dye is immediately removed by gentle rinsing with a stream of deionized water by filling and inverting the plates 4–5 times, or by using an automated pipettor. Rinsed plates are air-dried at room temperature for 0.5–2 hours. Bound dye is extracted by the addition of 150 μL per well of 95% ethanol, followed by vigorous mixing for 10–15 seconds and incubation for 45 minutes at room temperature without shaking. Subsequently, either undiluted or diluted (in ethanol) samples of extracted CV are transferred to flat bottom, polystyrene microtiter plates and absorbances at 586 nm were measured in a microplate reader. Readings from wells containing compounds are compared to the average of data from control wells that contain only DMSO. Replicate samples are measured, and results are reported as averages of the replicate well data points.
# (§4) Data are expressed in terms of the average percentage reduction of biofilm formed in the presence of each compound, relative to the DMSO controls, for quadruplicate samples. Assays are run using the three compound concentrations indicated. Positive numbers indicate prevention of biofilm formation by a compound, and negative numbers indicate enhancement of biofilm formation by a compound (percentage coefficients of variation are ≦10%).
# [2] = system: S. epidermidis strain ATCC 35984; assay: as above; details: Staphylococcus epidermidis, positive = prevention, negative = enhancement of biofilm formation, quadruplicate, read-out: average percentage reduction of biofilm formed relative to DMSO controls; for inhibition at 32 µM: ATCC35984, 32 μM; for inhibition at 160 µM: ATCC35984, 160 μM; for inhibition at 390 µM: ATCC35984, 390 μM
# Method: as §1, §2, §3, §4
# [3] = system: P. aeruginosa strain PAO1; assay: as above; details: Pseudomonas aeruginosa, positive = prevention, negative = enhancement of biofilm formation, quadruplicate, read-out: average percentage reduction of biofilm formed relative to DMSO controls
# Method: as §1, §2, §3, §4
# [4] = system: P. fluorescens strain ATCC 13525; assay: Improved biofilm dispersion screen (already-formed biofilms, crystal violet); details: Pseudomonas fluorescens, ATCC13525, 20 mM NaOH step, positive = dispersion, negative = enhancement of pre-existing biofilm, quadruplicate, read-out: average percentage reduction of biofilm relative to the two control values (dispersion)
# Method: (§5) A modification of method disclosed in Reference Example 2, which greatly improves the sensitivity and reproducibility of the dispersion screen is hereby disclosed. […] In the modification described herein, compounds are added in the presence of the fresh liquid growth media, such that the resultant biofilms continue to grow, unless a test compound triggers their dispersion. Overnight cultures are made as above, and 100 μL of the appropriate liquid growth media are dispensed into duplicate 96 well microplates—in this fashion, two identical microplates are set up for each bacterial species to be assayed. Neither compounds nor DMSO are added prior to the inoculation of bacteria, and growth in the duplicate plates for 24 hours is allowed using the conditions specified in Reference Example 1. After growth of biofilm to be tested in the wells, cells present in biofilm attached to one of the duplicate microplates is stained with CV, quantitated as described in Reference Example 1, and the data for the entire plate averaged, resulting in a growth control value, t0. The remaining replicate of each microplate pairs is treated with compounds in DMSO, or DMSO alone for control wells, by first removing the cell suspensions from the wells, then adding fresh 100 μL volumes of the same appropriate liquid growth media, followed by direct addition and mixing of the compound DMSO solutions to give final compound concentrations of 390 μM. Incubation of the compound-containing microplates is then continued for an additional 22–26 hours using the same conditions described in Reference Example 1. Cell suspensions are then removed, 100 μL per well of a 0 mM NaOH (S. epidermidis), 20 mM NaOH (P. fluorescens), or 30 mM NaOH (P. aeruginosa) solution in PBS is added, and incubation at room temperature is allowed for 30 minutes. No addition of NaOH is made to the S. epidermidis suspension since a test assay indicated no amplification by base with S. epidermidis. The microplates are subsequently rinsed three times with 150 μL per well of PBS, followed by final liquid removal, staining with CV and quantitation as described in Reference Example 1. Data for each well that contained compound result in a compound value, R, and data for control wells that contained DMSO only are averaged to generate a second control value, t24. The effect of each compound tested on dispersion of the biofilm compared to the two control values is calculated thus: [formula] […] Data are expressed in terms of the average percentage reduction of biofilm formed in the presence of each compound, relative to the two control values, for quadruplicate samples. Assays are run as described above, using compound concentrations of 390 μM. Positive numbers indicate dispersion (reduction) of pre-existing biofilms by a compound, and negative numbers indicate enhancement (stimulation of growth) of pre-existing biofilms by a compound (percentage coefficients of variation are ≦15%).
# [5] = system: S. epidermidis strain ATCC 35984; assay: as above; details: Staphylococcus epidermidis, ATCC35984, no NaOH, positive = dispersion, negative = enhancement of pre-existing biofilm, quadruplicate, read-out: average percentage reduction of biofilm relative to the two control values (dispersion)
# Method: as §5
# [6] = system: P. aeruginosa strain PAO1; assay: as above; details: Pseudomonas aeruginosa, 30 mM NaOH step, positive = dispersion, negative = enhancement of pre-existing biofilm, quadruplicate, read-out: average percentage reduction of biofilm relative to the two control values (dispersion)
# Method: as §5
SMILES,inhibition at 32 µM [1],inhibition at 160 µM [1],inhibition at 390 µM [1],inhibition at 32 µM [2],inhibition at 160 µM [2],inhibition at 390 µM [2],inhibition at 32 µM [3],inhibition at 160 µM [3],inhibition at 390 µM [3],inhibition at 390 µM [4],inhibition at 390 µM [5],inhibition at 390 µM [6]
CCCCCCNC(=O)[C@@H]1CCCN1C(=O)OC(C)(C)C [Compound 10],-1%,-5%,-6%,-18%,-17%,-25%,-7%,-16%,-16%,-2%,-6%,-9%
CCCCCCCCNC(=O)[C@@H]1CCCCN1C(=O)OC(C)(C)C [Compound 19],6%,8%,10%,-11%,-33%,-11%,10%,-2%,-17%,0%,-3%,-25%
CCCCCCNC(=O)[C@@H]1CCN1 [Compound 287],-42%,-7%,40%,74%,101%,101%,-1%,11%,-2%,-18%,71%,-70%
CCCCCCCCCCCCNC(=O)[C@H]1CCCN1C(=O)OC(C)(C)C [Compound 159],-1%,-3%,-13%,-9%,-20%,-3%,-9%,-38%,-50%,-94%,0%,-55%
CCCCCCCCNC(=O)[C@H]1CCCN1 [Compound 164],8%,7%,54%,-8%,-1%,-35%,6%,11%,12%,47%,-3%,38%
CCCCCCCCCCCCNC(=O)[C@H]1CCCN1 [Compound 167],38%,95%,92%,40%,100%,99%,4%,49%,93%,0%,78%,4%
CCCCCCCCNC(=O)C1CCCN1C(C)=O (stereo not drawn) [Compound 8],-12%,-26%,-24%,-13%,-22%,-32%,-9%,-11%,-9%,-1%,0%,-30%
CCCCCCNC(=O)[C@H]1CCCN1C(=O)OC(C)(C)C [Compound 153],7%,4%,-3%,-8%,-7%,-17%,-9%,-6%,-4%,1%,-10%,-7%
CCCCCCCCNC(=O)[C@H]1CCCCN1C(C)=O [Compound 24],-1%,-6%,-2%,-8%,-20%,-53%,-12%,-22%,-11%,0%,-8%,-17%
